One may read the pIC50 as the negative decadic logarithm of the IC50, by convention in mol/L. A high value points to a small IC50.

Our source for the IC50 values is ChEMBL document CHEMBL3886392, “Substituted imidazopyrazines” (2015).

The assay deals with T1, Dual specificity protein kinase TTK (Homo sapiens, UniProt P33981).
T1 sequence (P33981 whole entry): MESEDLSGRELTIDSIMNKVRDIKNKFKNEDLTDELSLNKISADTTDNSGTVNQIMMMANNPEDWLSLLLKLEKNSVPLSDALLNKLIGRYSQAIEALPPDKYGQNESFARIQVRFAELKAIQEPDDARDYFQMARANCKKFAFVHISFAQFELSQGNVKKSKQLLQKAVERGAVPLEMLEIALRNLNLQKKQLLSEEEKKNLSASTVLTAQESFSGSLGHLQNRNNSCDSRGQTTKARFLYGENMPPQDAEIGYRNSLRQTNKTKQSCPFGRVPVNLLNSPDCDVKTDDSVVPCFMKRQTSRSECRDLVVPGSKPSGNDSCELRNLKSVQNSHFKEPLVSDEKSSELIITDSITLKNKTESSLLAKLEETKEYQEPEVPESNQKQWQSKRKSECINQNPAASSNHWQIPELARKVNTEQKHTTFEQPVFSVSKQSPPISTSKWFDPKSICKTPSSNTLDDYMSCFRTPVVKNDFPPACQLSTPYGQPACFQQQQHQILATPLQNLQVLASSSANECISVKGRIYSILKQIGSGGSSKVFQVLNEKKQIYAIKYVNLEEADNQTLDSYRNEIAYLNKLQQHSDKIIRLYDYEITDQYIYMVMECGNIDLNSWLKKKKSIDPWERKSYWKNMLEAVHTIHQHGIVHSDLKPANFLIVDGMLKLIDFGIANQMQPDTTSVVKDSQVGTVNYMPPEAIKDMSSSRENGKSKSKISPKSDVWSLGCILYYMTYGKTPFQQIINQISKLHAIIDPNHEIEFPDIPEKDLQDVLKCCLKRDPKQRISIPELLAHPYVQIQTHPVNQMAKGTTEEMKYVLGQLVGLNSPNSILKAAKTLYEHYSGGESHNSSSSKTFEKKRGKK

pIC50: −log10 of the molar value.

On to `C#Cc1cn2c(-c3ccc(C(=O)NC4C[C@@H]4F)c(C)c3)cnc2c(NCCC(F)(F)F)n1` (stereo in doubt), for which the pIC50 was 7.44.
